Structures are written as SMILES. Read-outs that look alike come from different tables or passages of the source.

The nature of data set [1]: log P by HPLC on reversed-phase (C18) columns, OECD Guideline 117. In kind it is physicochemical. The following applies: for chromatographic logP: reversed-phase (C18) HPLC column.
Data set [2] has as its system Meloidogyne incognita. Briefly: Meloidogyne incognita - test. The following applies: 20 ppm, lettuce, after 14 days. The class given is in vivo. On the procedure:
Meloidogyne incognita—Test
To produce a suitable active ingredient formulation, 1 part by weight of active ingredient is mixed with the stated amount of solvent and the concentrate is diluted to the desired concentration with water.
Vessels are filled with sand, active ingredient solution, an egg/larvae suspension of the southern root-knot nematode (Meloidogyne incognita) and lettuce seeds. The lettuce seeds germinate and the plants develop. The galls develop on the roots.
After 14 days, the nematicidal efficacy in % is determined by the formation of galls. 100% means that no galls were found; 0% means that the number of galls on the treated plants corresponds to the untreated control.

The test system of data set [3] is Myzus persicae. Briefly: Myzus persicae - spray test. In kind it is in vivo. Summed up: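 Chinese cabbage leaf discs infested with all stages of green peach aphid sprayed with active ingredient formulated in emulsifier-containing water (1000 ppm emulsifier). Efficacy scored after 5 days as % aphids killed (100% = all, 0% = none).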
The subject of data set [4] is Myzus persicae. Briefly: Myzus persicae - oral test. The class given is in vivo. An outline of the steps:
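The active ingredient, dissolved in solvent and diluted with water, was mixed with IPL41 insect medium (33%+15% sugar) and sealed under parafilm. A mixed population of green peach aphids fed through the parafilm. Efficacy in % was scored after 5 days, where 100% means all aphids were killed.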

Data set [5] concerns Tetranychus urticae. Briefly: Tetranychus urticae - spray test, OP-resistant. In kind it is in vivo. The note with it: 500 g/ha, bean leaf discs, after 6 days. On the procedure: Tetranychus urticae—Spray Test, OP-Resistant
To produce a suitable active ingredient formulation, 1 part by weight of active ingredient is dissolved with the specified parts by weight of solvent and made up to the desired concentration with water containing an emulsifier concentration of 1000 ppm. To produce further test concentrations, the formulation is diluted with emulsifier-containing water.
Discs of bean leaves (Phaseolus vulgaris) infested with all stages of the greenhouse red spider mite (Tetranychus urticae) are sprayed with an active ingredient formulation of the desired concentration.
After 6 days, the efficacy in % is determined. 100% means that all the spider mites have been killed; 0% means that no spider mites have been killed.

Take `CN(C(=O)c1cnc(C2=NOCCO2)n1C)c1cccnc1` [Example I-1-29, 2-(5,6-Dihydro-1,4,2-dioxazin-3-yl)-N,1-dimethyl-N-(pyridin-3-yl)-1H-imidazole-5-carboxamide]: the chromatographic logP came to 0.45 in data set [1] (HPLC RP C18, acidic range pH 2.7, 0.1% formic acid/acetonitrile, read-out: logP[a]) and 0.76 in data set [1] (HPLC RP C18, neutral range pH 7.8, ammonium hydrogencarbonate/acetonitrile, read-out: logP[n]). In data set [2], the “nematicidal efficacy (formation of galls)” value was found to be 100%. In data set [3] (Myzus persicae, in Brassica rapa, foliar, 120 h, read-out: efficacy (aphids killed)), the pest or weed control at 500 g/ha was determined as 100%. Moreover, the pest or weed control at 4 ppm in data set [4] (Myzus persicae, po, 120 h, read-out: efficacy (aphids killed)) worked out at 100%.
On to `CCN(C(=O)c1cnc(C2CC(c3ccccc3)=NO2)n1C)c1cccnc1` (stereo not shown) [Example I-1-8], for which the “logP[a]” value in data set [1] (HPLC RP C18, acidic range pH 2.7, 0.1% formic acid/acetonitrile) is on record as 1.74. In data set [1] (HPLC RP C18, neutral range pH 7.8, ammonium hydrogencarbonate/acetonitrile), the “logP[n]” value is 1.92. The “efficacy (aphids killed)” value in data set [3] (500 g/ha, Chinese cabbage leaf discs, after 5 days) was found to be 100%; in data set [4] (4 ppm, oral, after 5 days), 100%. Besides, in data set [5], the “efficacy (spider mites killed)” value came out at 90%.

The record behind these values is patent US10660333B2, “Substituted 2-heterocyclylimidazolylcarboxamides as pesticides” (BAYER CROPSCIENCE AKTIENGESELLSCHAFT, priority 2016, dated 2020).
